For the experiment, the system named is midbrain DA (TH^+) neurons. Briefly: Spontaneous dopaminergic (DA) cell death model in midbrain cultures. In kind it is cell-based, Wistar rat. As to conditions: chronic treatments for 10 days. The protocol: Animals were treated in accordance with the Guide for the Care and Use of Laboratory Animals (National Research Council, 1996), European Directive 86/609, and the guidelines of the local institutional animal care and use committee. Cultures were prepared from the ventral mesencephalon of gestational age 15.5 Wistar rat embryos (Janvier Breeding Center, Le Genest St Isle, France). Dissociated cells in suspension obtained by mechanical trituration of midbrain tissue pieces were seeded at a density of 1.2-1.5 10^5 cells/ cm^2 onto tissue culture supports precoated with 1 mg/ml polyethylenimine diluted in borate buffer pH 8.3 as described (Michel PP, et al., J Neurochem. 1997 Oct;69(4):1499-507). The cultures were then maintained in N5 medium supplemented with 5 mM glucose, 5% horse serum, and 0.5% fetal calf serum, except for the first 3 days in vitro (DIV), when the concentration of fetal calf serum was 2.5% to favor initial maturation of the cultures (Guerreiro S, et al., Mol Pharmacol. 2008 Oct;74(4):980-9). They were fed daily by replacing 70% of the medium. […]
We used a model system in which DA cell loss was spontaneous. […] For the spontaneous dopaminergic cell death model, TH^+ neurons were counted while for the neuro-inflammation model, the number of microglial cells was evaluated. […]

Structures are written as SMILES.

As for `CC(=O)OCOC(=O)c1ccc[n+]([C@@H]2O[C@H](COP(=O)(O)OP(=O)(OCOC(C)=O)OC[C@H]3O[C@@H](n4cnc5c(N)ncnc54)[C@H](OP(=O)(OCOC(C)=O)OCOC(C)=O)[C@@H]3O)[C@@H](O)[C@H]2O)c1` (stereo partly drawn) [compound 2, 1-((2R,3R,4S,5R)-5-((((((acetoxymethoxy)(((2R,3R,4R,5R)-5-(6-amino-9H-purin-9-yl)-4-((bis(acetoxymethoxy)phosphoryl)oxy)-3-hydroxytetrahydrofuran-2-yl)methoxy)phosphoryl)oxy)(hydroxy)phosphoryl)oxy)methyl)-3,4-dihydroxytetrahydrofuran-2-yl)-3-((acetoxymethoxy)carbonyl)pyridin-1-ium], the optimal neuroprotective concentrations amounted to 1 µM.
In the case of `Nc1ncnc2c1ncn2[C@@H]1O[C@H](COP(=O)(O)OP(=O)(O)OC[C@H]2O[C@@H]([n+]3cccc(C(=O)[O-])c3)[C@H](O)[C@@H]2O)[C@@H](O)[C@H]1OP(=O)(O)O` [compound 1, 1-[(2R,3R,4S,5R)-5-[[[[(2R,3R,4R,5R)-5-(6-aminopurin-9-yl)-3-hydroxy-4-phosphonooxyoxolan-2-yl]methoxy-hydroxyphosphoryl]oxy-hydroxyphosphoryl]oxymethyl]-3,4-dihydroxyoxolan-2-yl]pyridin-1-ium-3-carboxylic acid] it was 30 µM.

The record behind these values is EP3323415A1, “TREATMENT OF NEURODEGENERATIVE DISEASES” (Institut du Cerveau et de la Moelle Épinière-ICM, priority 2016, dated 2018).
